Patent US7371779B2, “Synergistic compositions of N-acylhomoserine lactones and 4-quinolones” (The Secretary of State for Defense Science and Technology, priority 2001, dated 2008)
pIC50: −log10 of the molar value. Entries after “also recorded” stand apart in the source; their conditions may differ.

What was measured:
TNF-alpha = TNF-alpha production from LPS-stimulated human PBMC (sandwich ELISA); type: cell-based; conditions: for inhibition of LPS induced TNF-α production by human PBMC, in words: LPS-stimulated human PBMC
Procedure: Bacterial lipopolysaccharide (LPS) stimulates the production of a variety of cytokines, including TNF-alpha, from human PBMC; these cytokines in turn influence the development of T cells, supporting a T helper 1 conducive milieu. Human PBMC prepared from whole blood by buoyant density centrifugation were resuspended in CTCM. […] Following incubation for 24 h at 37° C. in 5% CO2-air, the cell culture supernatants were collected and tested for TNF-alpha levels by ‘sandwich’ ELISA. Briefly, 96-well Nunc MaxiSorp (Life Technologies, Paisley, UK) plates were coated with 50 μl of a 2 μg/ml solution of mouse anti-human TNF-alpha monoclonal antibody (Pharmingen, UK) in 0.05 M carbonate/bicarbonate buffer, pH 9.6 overnight at 4° C. After washing the plates three times with PBS-Tween, which contained phosphate buffered saline (PBS) with 0.5% (vol/vol) Tween 20 (Sigma, Poole, UK), the plates were blocked with 1% (wt/vol) bovine serum albumin (BSA) (Sigma, Poole, UK) at room temperature for 2 h. Following three washes with PBS-Tween, 50 μl of cell culture supernatants were added and incubated overnight at 4° C.; standard human TNF-alpha (Pharmingen, UK) ranging from 2000 to 31.25 pg/ml were included for each plate. After four washes with PBS-Tween, 50 μl of a second antibody, biotinylated mouse anti-human TNF-alpha monoclonal antibody (Pharmingen, UK) was added at 0.5 μg/1 ml diluted in 1% BSA in PBS-Tween and incubated at room temperature for 1 h. Following four washes, the bound biotinylated antibody was detected with 50 μl of a 1:1,000 dilution of Streptavidin-peroxidase (Pharmingen, UK). At the end of an hour incubation at room temperature, the plates were thoroughly washed six times with PBS-Tween and the assay was developed by the addition of 100 μl of 0.1 mg/ml of tetramethyl benzidine subtrate (Sigma, Poole, UK) in 0.1 M sodium acetate buffer, pH 6 containing 0.03% H2O2. The enzyme reaction was stopped with 50 μl of 2.5 M H2SO4 after an incubation of 10 minutes at room temperature and the development was read at 450 nm with a spectrophotometric 96-well plate reader (Dynex).

IL-2 = IL-2 production from anti-CD3 and anti-CD28 stimulated hPBMC (sandwich ELISA); type: cell-based, human; conditions: four donors, 24 h supernatants
Procedure: Anti-CD3 and anti-CD28 antibodies were used to assess the effect of quorum sensing signal molecules (PQS, OdDHL and OHHL) on T-cell proliferation and IL-2 secretion. Proliferation was assessed by the incorporation of [^3H]-thymidine into the DNA of PBMC and the release of cytokines in the culture supernatants was determined by ‘sandwich’ ELISA. Blood specimens were obtained with consent from four healthy human volunteers (aged between 20 and 50 years). Human PBMC were isolated from heparinised whole blood by buoyant density centrifugation over Histopaque 1077 (Sigma, Poole, UK) at 600 g for 20 minutes. […] Following the addition of 25 μl of scintillant (MicroScint-O™; Packard Bioscience Ltd. UK) to each well in the filter plates, the radioactivity in the filters was measured with a β-scintillation counter (TopCount™, Packard Bioscience Ltd, UK) according to manufacturer's specifications. […]
When T cells in hPBMC are challenged with anti-CD3 and anti-CD28 antibodies, the cytokine IL-2 is released into the culture supernatants. The levels of cytokine produced in the culture supernatants after 24 h were determined in a ‘sandwich’ ELISA. […] Following four washes, the bound biotinylated antibody was detected with 50 μl of a 1:1,000 dilution of streptavidin-peroxidase (BD Pharmingen, UK). […]

murine spleen cells = conditions: Infection and Immunity vol.66 no.1, 1998; cited from earlier work
TNFα = conditions: Infection and Immunity vol.66 no.1, 1998; cited from earlier work

Row | Structure (SMILES) | pIC50 (TNF-alpha; Experiment III, read-out: IC50 in inhibition of LPS induced production of TNF-α by human PBMC) | inhibition of LPS induced TNF-α production by human PBMC, in words (TNF-alpha; listed as OdDHL) | inhibition of release of IL-2 from hPBMC stimulated via CD3 and CD28, in words (IL-2; listed as OdDHL) | inhibition of ConA mitogen stimulated proliferation of murine spleen cells (murine spleen cells) | inhibition of TNFα production by LPS-stimulated adherent murine peritoneal macrophages (TNFα) | inhibition of LPS induced TNF-α production by human PBMC, in words (TNF-alpha) | inhibition of release of IL-2 from hPBMC stimulated via CD3 and CD28, in words (IL-2)
1 | CCCCCCCCCC(=O)CC(=O)N[C@H]1CCOC1=O [Example 6] | 4.77 | inhibited the secretion | inhibited in a dose dependent manner the release of IL-2; also recorded: inhibits the release of IL-2 | inhibiting | inhibiting | – | –
2 | CCCCCCCc1[nH]c2ccccc2c(=O)c1O [PQS] | – | – | – | – | – | not inhibited | but not PQS, inhibits the release of IL-2
